Assay results: patent publication US10159265B2, “Feed composition for reducing ruminant methanogenesis” (priority 2012, dated 2018)
Marks after values point to notes of the source that are not given here.

Key:
[1] = test system: "in vitro" ruminal fluid cultures; assay: Ammonia (N-NH3) concentration in "in vitro" ruminal fluid cultures; assay type: cell-based, calves; conditions: 72 h
[2] = test system: Megasphaera elsdenii; assay: qPCR relative quantification of Megasphaera elsdenii; assay type: cell-based; conditions: 12 hours of incubation
Protocol: (§1) Rumen cannulated calves which received a mixed ration mainly composed of concentrate (90:10) were used as rumen fluid donor; feed composition is presented in Table 1. The inoculum was collected and filtered through two-layer surgical gauze and kept in thermo pots. Flavonoids (Table 2) plus 600 mg of concentrate (Table 1) and 60 mg of barley straw as the substrate were dosed by triplicate in preheated bottles (39° C.) and maintained under anaerobic conditions. Flavonoids isonaringin, neoeritrocin, poncirin were purchased from INDOFINE Chemical Company, Inc (USA). 10 ml of rumen fluid and 40 ml of incubation medium were added to the bottles (McDougall, El (1948) Studies on ruminant saliva. 1. The composition and output of sheep's saliva. Biochem J. 43(1) 99-109). Once the bottles were filled and the anaerobic condition was applied, the bottles were sealed and the incubation process was started in a hot water bath. Pressure readings were made at 2, 4, 6, 8, 12, 24, 36 and 48 hours. Each sample was incubated in triplicate in two sets or batches.
(§2) After 12 hours of incubation, one bottle (replicate) from each treatment was opened, pH was recorded and the bottle was sampled for volatile fatty acids (Jouany, J. P., 1982 Science des Aliments 2, 131-144), lactate (Taylor, K. A. C. C., 1996. Appl. Biochem. Biotechnol. Enzym. Eng. Biotechnol. 56, 49-58) and ammonia (Chaney, A. L., Marbach, E. P., 1962. Clin. Chem. 8, 130-132) analyses.
(§3) The environmental DNA was extracted using the technique proposed by Yu and Morrison (2004). Quantification of Streptococcus bovis, Megasphaera elsdenii and Selenomonas ruminantium DNA was done by qPCR using specific primers (Tajima, K. et al. 2001. Appl. Environ. Microb. 67, 2766-2774; Ouwerkerk, D., et al. 2002. J. Appl. Microbiol. 92, 753-758). Results were statistically analyzed using the PROC MIXED procedure of SAS statistical package (SAS, 2000, User's guide: Statistics, version 8 editions inst., Inc., Cary, N.C.). The least significant difference was used to compare the means. Differences between means in which P<0.05 were accepted as significant.

[3] = test system: "in vitro" rumen fluid culture; assay: Biogas production in "in vitro" rumen fluid culture (pressure meter); assay type: cell-based, calves; parameters: Average biogas production / Cumulative biogas production / Biogas production: unit not given here; conditions: Exp 1; for Average biogas production: average over doses and incubation times
Protocol: (§4) Two trials following an identical experimental protocol were designed to study the effect of different pure flavonoids on rumen fermentation using a simulatory “in vitro” system based on the experimental protocol described by Theodorou M K et al. (1994) Animal Feed Science and Technology, 48 (3), p. 185-197; Mauricio, R. M., et al. (1999) Animal Feed Science and Technology 79, 321-330.
Gas production was determined from a semi-automatic pressure meter, the relationship between pressure levels and the produced gas volume was previously calculated.
as §1, with “Pressure readings were made at 2, 4, 6, 8, 12, 24, 36 and 48 hours.” left out

[4] = test system: Streptococcus bovis; assay: qPCR relative quantification of Streptococcus bovis; assay type: cell-based; conditions: 12 hours of incubation
Protocol: as §1, §2, §3

[5] = test system: "in vitro" ruminal fluid cultures; assay: Volatile fatty acid concentration and molar proportions in "in vitro" ruminal fluid cultures; assay type: cell-based, calves
Excerpt: as §4, §1
[…] P., 1982 Science des Aliments 2, 131-144), lactate (Taylor, K. A. C. C., 1996. Appl. Biochem. Biotechnol. Enzym. Eng. Biotechnol. 56, 49-58) and ammonia (Chaney, A. L., Marbach, E. P., 1962. Clin. Chem. 8, 130-132) analyses.

[6] = test system: "in vitro" ruminal fluid cultures; assay: Ammonia (N-NH3) concentration in "in vitro" ruminal fluid cultures; assay type: cell-based, calves
Excerpt: as §4, §1, §2

[7] = test system: ruminal bacteria; assay: Bacterial DNA concentration by qPCR; assay type: cell-based, calves; conditions: 12 hours of incubation
Protocol: as §1, §2, §3

[8] = test system: methanogenic (archea) populations; assay: Methane production in "in vitro" rumen fluid culture; assay type: cell-based, calves; parameters: Average methane production / Accumulated methane production / Methane production / Cumulative methane production: unit not given here; conditions: Exp 1
Excerpt: as §4
as §1, with “Pressure readings were made at 2, 4, 6, 8, 12, 24, 36 and 48 hours.” left out
The effects of flavonoids substances on fermentation activity of certain archea populations which are theoretically responsible for the methane production were analyzed.
The experimental design allows determining whether the effect of flavonoids on methane reduction was derived from a general reduction in microbial activity and biogas production or contrarily flavonoid affects specifically on methanogenic (archea) populations. The presence of flavonoids in the culture medium reduced methane contribution in the total biogas production (P<0.05) although, again, the aforementioned impact was heterogeneous.

[9] = test system: Selenomonas ruminantium; assay: qPCR relative quantification of Selenomonas ruminantium; assay type: cell-based; conditions: 12 hours of incubation
Protocol: as §1, §2, §3

[10] = test system: "in vitro" ruminal fluid culture; assay: Lactate concentration in "in vitro" ruminal fluid culture; assay type: cell-based, calves; conditions: 12 hours of incubation
Excerpt: as §4, §1, §2

C[C@@H]1O[C@@H](O[C@H]2[C@H](Oc3cc(O)c4c(c3)O[C@H](c3ccc(O)cc3)CC4=O)O[C@H](CO)[C@@H](O)[C@@H]2O)[C@H](O)[C@H](O)[C@H]1O [Naringin, naringin]
N-NH3 concentration [1]: 336.25 mg/L | Relative Quantification 2^(ΔΔCt) M. elsdenii [2]: 1.26 ^c | Cumulative biogas production ([3]; 12 h incubation): 193.90 | Cumulative biogas production ([3]; 24 h incubation): 236.91 | Cumulative biogas production ([3]; 48 h incubation): 270.98 | Cumulative biogas production ([3]; 72 h incubation): 290.91 | Average biogas production [3]: 248.17^bc | Average biogas production ([3]; listed as naringin): did not change | Biogas production ([3]; dose 1, 0.2 g/kg DM): 251.15 | Biogas production ([3]; dose 2, 0.5 g/kg DM): 245.19 | Relative Quantification 2^(ΔΔCt) S. bovis [4]: 0.48 | % Acetate, molar ratio ([5]; 0 h): 62.51 mol/100 mol | % Butyrate, molar ratio ([5]; 0 h): 9.07 mol/100 mol | % Propionate, molar ratio ([5]; 0 h): 20.03 mol/100 mol | A/P rate (acetate/propionate) ([5]; 0 h): 3.12 | VFA concentration ([5]; 0 h (initial constant value)): 13.78 mmol/L | % Acetate, molar ratio ([5]; 12 h): 53.70 mol/100 mol | % Butyrate, molar ratio ([5]; 12 h): 10.47 mol/100 mol | % Propionate, molar ratio ([5]; 12 h): 30.00 mol/100 mol | A/P rate (acetate/propionate) ([5]; 12 h): 1.79 | VFA concentration ([5]; 12 h): 35.23 mmol/L | % Acetate, molar ratio ([5]; 72 h): 55.34 mol/100 mol | % Butyrate, molar ratio ([5]; 72 h): 10.33 mol/100 mol | % Propionate, molar ratio ([5]; 72 h): 26.75 mol/100 mol | A/P rate (acetate/propionate) ([5]; 72 h): 2.07 | VFA concentration ([5]; 72 h): 51.03 mmol/L | % Acetate, molar ratio, average (μ) ([5]; average over incubation times): 57.18 mol/100 mol | % Butyrate, molar ratio, average (μ) ([5]; average over incubation times): 9.96 ^ab mol/100 mol | % Propionate, molar ratio, average (M) ([5]; average over incubation times): 25.59 ^b mol/100 mol | VFA concentration, average (μ) ([5]; average over incubation times): 33.35 mmol/L | % Propionate, molar ratio, average (M) ([5]; average over incubation times, listed as naringin): improved | N-NH3 concentration ([6]; 0 h (initial constant value)): 149.99 mg/L | N-NH3 concentration ([6]; 12 h): 172.47 mg/L | N-NH3 concentration, average (M) ([6]; average over incubation times): 219.57 mg/L | Bacteria DNA [7]: 22.15 ^ab μg/ml | Accumulated methane production ([8]; 12 h): 23.38 | Proportion of methane in the produced biogas ([8]; 12 h): 12.04 | Accumulated methane production ([8]; 24 h): 29.46 | Proportion of methane in the produced biogas ([8]; 24 h): 14.28 | Accumulated methane production ([8]; 48 h): 34.93 | Proportion of methane in the produced biogas ([8]; 48 h): 16.14 | Accumulated methane production ([8]; 72 h): 38.24 | Proportion of methane in the produced biogas ([8]; 72 h): 16.97 | Proportion of methane in the produced biogas ([8]; average over doses and incubation times): 14.86^b | Average methane production ([8]; average over doses and incubation times, listed as Naringina): 31.50^b | Average methane production ([8]; average over doses and incubation times, listed as naringin): not modified | Methane production ([8]; dose 1, 0.2 g/kg DM): 32.28 | Proportion of methane in the produced biogas ([8]; dose 1, 0.2 g/kg DM): 14.87 | Methane production ([8]; dose 2, 0.5 g/kg DM): 30.73 | Proportion of methane in the produced biogas ([8]; dose 2, 0.5 g/kg DM): 14.85 | Relative Quantification 2^(ΔΔCt) S. ruminantium [9]: 0.74 | Lactate [10]: 77.8 mg/L
